{"source": "paper PMC11377395", "about": "(Purinergic Signalling, 2024)", "target": "T1, A3 adenosine receptor (hA3AR) (Homo sapiens, UniProt P0DMS8)", "T1 construct": "gene ADORA3", "T1 sequence (P0DMS8 1-318)": "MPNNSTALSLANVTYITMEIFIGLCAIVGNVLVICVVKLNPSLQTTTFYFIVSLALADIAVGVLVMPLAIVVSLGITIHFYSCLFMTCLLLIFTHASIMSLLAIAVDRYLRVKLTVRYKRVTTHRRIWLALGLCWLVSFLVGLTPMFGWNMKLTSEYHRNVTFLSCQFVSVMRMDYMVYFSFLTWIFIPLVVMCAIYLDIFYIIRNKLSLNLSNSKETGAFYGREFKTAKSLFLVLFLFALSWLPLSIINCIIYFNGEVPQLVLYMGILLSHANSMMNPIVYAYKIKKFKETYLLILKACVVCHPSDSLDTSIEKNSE", "experiment": "positive allosteric modulation of MRS5698 at […] in cAMP assay, CHO-hA3AR (also HL-60 cells)", "format": "cell-based"}
{"smiles": "Clc1ccc(Nc2nc3ccccc3c3[nH]c(C4CCCCC4)nc23)cc1Cl", "note": "[LUF6000, N-(3,4-Dichloro-phenyl)-2-cyclohexyl-1 H-imidazo[4,5-c]quinolin-4-amine]", "values": [{"measurement": "% Emax enhancement", "value": 19, "unit": "% Emax enhancement"}]}
